Assay results: article PMC5771072, “Benefits of VCE-003.2, a cannabigerol quinone derivative, against inflammation-driven neuronal deterioration in experimental Parkinson’s disease: possible involvement of different binding sites at the PPARγ receptor” (Journal of Neuroinflammation, 2018)

Molecular target: T1, PPARγ (Homo sapiens, UniProt P37231)
T1 construct: gene PPARG; GAL4-PPARγ
T1 sequence (P37231 1-505): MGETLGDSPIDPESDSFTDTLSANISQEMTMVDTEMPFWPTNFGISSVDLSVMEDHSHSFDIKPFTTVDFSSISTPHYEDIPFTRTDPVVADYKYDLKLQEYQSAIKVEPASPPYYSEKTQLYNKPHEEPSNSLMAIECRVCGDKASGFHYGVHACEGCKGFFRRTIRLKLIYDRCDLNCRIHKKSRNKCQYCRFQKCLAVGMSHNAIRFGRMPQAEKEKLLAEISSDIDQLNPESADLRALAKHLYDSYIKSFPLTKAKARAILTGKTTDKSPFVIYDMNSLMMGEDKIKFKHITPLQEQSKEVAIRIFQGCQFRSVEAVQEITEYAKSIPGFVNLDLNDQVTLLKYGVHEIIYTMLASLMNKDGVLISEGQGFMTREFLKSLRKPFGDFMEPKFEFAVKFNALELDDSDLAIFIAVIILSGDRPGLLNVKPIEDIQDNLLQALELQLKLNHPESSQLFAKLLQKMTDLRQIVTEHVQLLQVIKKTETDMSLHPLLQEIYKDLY
Assay: GAL4-PPARγ/GAL4-luc luciferase transactivation in transfected HEK-293T cells (reference full agonist)
Assay type: cell-based

Question: How did the “GAL4-PPARγ/GAL4-luc luciferase transactivation in transfected HEK-293T cells (re)” value turn out when `CN(CCOc1ccc(CC2SC(=O)NC2=O)cc1)c1ccccn1` (stereo not shown) [Rosiglitazone] was run?
Answer: The value was “RGZ activates PPARγ by acting mainly through the canonical binding site”.
